Tests used:
[1] = test system: DENV2; experiment: Anti-DENV2 activity in human lung epithelial A549 cells; assay type: cell-based, Dengue virus type 2; conditions: DENV2 MOI 0.01, 120 h
[2] = test system: DENV2; experiment: Immunofluorescence assay of DENV2 infectivity; assay type: cell-based, Dengue virus type 2 (strain 16681); conditions: for rate of NS4B-positive cells: Vero E6, DENV2-infected, 96 h

CC[C@H](C)[C@H](NC(=O)[C@H]1O[C@@H](O[C@H]2[C@@H](O[C@H]3CC[C@]4(C)[C@H]5C(=O)C=C6[C@@H]7C[C@@](C)(C(=O)N[C@H](C(=O)O)[C@@H](C)CC)CC[C@]7(C)CC[C@@]6(C)[C@]5(C)CC[C@H]4C3(C)C)O[C@H](C(=O)N[C@H](C(=O)O)[C@@H](C)CC)[C@@H](O)[C@@H]2O)[C@H](O)[C@@H](O)[C@@H]1O)C(=O)O [Compound 13]
anti-DENV2 activity in A549 cells (in words) [1]: potent anti-DENV2 activity
rate of NS4B-positive cells ([2]; 0.1 μM compound): 37.2%
rate of NS4B-positive cells ([2]; 1 μM compound): 29.4%
rate of NS4B-positive cells ([2]; 10 μM compound): 1.6%

CC1(C)[C@@H](O[C@H]2O[C@H](C(=O)O)[C@@H](O)[C@H](O)[C@H]2O[C@@H]2O[C@H](C(=O)O)[C@@H](O)[C@H](O)[C@H]2O)CC[C@]2(C)[C@H]3C(=O)C=C4[C@@H]5C[C@@](C)(C(=O)O)CC[C@]5(C)CC[C@@]4(C)[C@]3(C)CC[C@@H]12 [Compound 1, Glycyrrhizic acid, reference compound]
TI (CC50/IC50) ([2]; Vero E6 cells): ˃12.3

COC(=O)[C@H](CCSC)NC(=O)[C@H]1O[C@@H](O[C@H]2[C@@H](O[C@H]3CC[C@]4(C)[C@H]5C(=O)C=C6[C@@H]7C[C@@](C)(C(=O)N[C@@H](CCSC)C(=O)OC)CC[C@]7(C)CC[C@@]6(C)[C@]5(C)CC[C@H]4C3(C)C)O[C@H](C(=O)N[C@@H](CCSC)C(=O)OC)[C@@H](O)[C@@H]2O)[C@H](O)[C@@H](O)[C@@H]1O [Compound 6]
TI (CC50/IC50) ([2]; Vero E6 cells): ˃22.2

CC1(C)[C@@H](O[C@H]2O[C@H](C(=O)N[C@@H](Cc3ccccc3)C(=O)O)[C@@H](O)[C@H](O)[C@H]2O[C@@H]2O[C@H](C(=O)N[C@@H](Cc3ccccc3)C(=O)O)[C@@H](O)[C@H](O)[C@H]2O)CC[C@]2(C)[C@H]3C(=O)C=C4[C@@H]5C[C@@](C)(C(=O)N[C@@H](Cc6ccccc6)C(=O)O)CC[C@]5(C)CC[C@@]4(C)[C@]3(C)CC[C@@H]12 [Compound 14]
anti-DENV2 activity (in words) ([2]; Vero E6 cells, CPE test and NS4B-positive cells): dropped the anti-DENV activity
